The source of these data is patent publication US9500656B2, “Methods for the identification, assessment, and treatment of patients with cancer therapy” (Millennium Pharmaceuticals, Inc., priority 2006, dated 2016).

Common to all, as to type: in vivo, human
The test system of assay [1] is multiple myeloma. The experiment in a line: Response (EBMT criteria) in the pharmacogenomic patient subset. The note with it: for CR (number of patients) / MR (number of patients) / NC (number of patients) / PD (number of patients) / PR (number of patients): study 039, pharmacogenomic patients. How it is done: (§1) During the study, disease response was assessed according to the European Group for Blood and Marrow Transplant (EBMT) criteria as presented in Table C.
A total of 264 patient samples were assessed for pharmacogenomic analyses. These patient samples were collected from the clinical trials of bortezomib for the treatment of multiple myeloma (see Table E). […] All pharmacogenomic analyses relied on the European Group for Blood and Marrow Transplant (EBMT) criteria of response category.

For assay [2], the system named is multiple myeloma. The experiment in a line: Phase 2 clinical study M34100-025 (second or greater relapse, refractory to last prior therapy). The note with it: bortezomib alone. The source says: (§2) See Richardson P G, et al. N Engl J Med., 348:2609-17 (2003). […] See Jagannath, Br J Haematol. 127:165-72 (2004). Patient samples and response criteria from patients participating in these studies, as well as the following additional studies described below were sought for use in pharmacogenomic analyses to identify markers associated with patient survival.

The subject of assay [3] is relapsed or refractory multiple myeloma. The experiment in a line: Open-label randomized study of bortezomib versus high-dose dexamethasone (Protocol M34101-039). The note with it: for survival: 22 month median follow-up, 44% events occurred; for One-year survival: in vivo. How it is done: A multicenter, open-label, randomized study was conducted, comprising 627 enrolled patients with relapsed or refractory multiple myeloma (Protocol M34101-039). See Richardson et. al., N. Engl. J. Med., 352:2487-2498 (2005).
Randomization was to be stratified, based on the number of lines of prior therapy (one prior line versus more than one prior line of therapy), time of progression relative to treatment (progression while on their most recent therapy or within 6 months of stopping their most recent therapy, or relapse >6 months after receiving their most recent therapy), and screening β2-microglobulin levels (>2.5 mg/L versus ≦2.5 mg/L).
Patients assigned to the high-dose dexamethasone group received treatment for a maximum of 280 days. Patients in this treatment group received up to four 5-week treatment cycles, followed by up to five 4-week treatment cycles. Within each 5-week treatment cycle, the patient received dexamethasone 40 mg/day PO, once daily on Days 1 to 4, 9 to 12, and 17 to 20 of a 35-day cycle. Within each 4-week treatment cycle, the patient received dexamethasone 40 mg/day PO once daily on Days 1 to 4 of a 28 day cycle.
as §1
See Richardson P G, et al. [submitted NEJM].
Disease progression was determined by Blade criteria as described in Table C and above. […] The date of progression was determined by computer algorithm. P-value from log-rank test adjusted by actual randomization factors. See, Richardson et al., New Engl J Med., submitted.

The subject of assay [4] is relapsed multiple myeloma. The experiment in a line: Phase 2 clinical study M34100-024 (first relapse).
Text: as §2

[5] abbreviates: best confirmed response, bortezomib n = 315, dexamethasone n = 312.
[6] abbreviates: difference in response rates, bortezomib versus dexamethasone.
[7] abbreviates: pharmacogenomic set of patients, EBMT criteria.

SMILES strings stand for the structures.

Regarding `CC(C)C[C@H](NC(=O)[C@H](Cc1ccccc1)NC(=O)c1cnccn1)B(O)O` [bortezomib, N-pyrazinecarbonyl-L-phenylalanine-L-leucineboronic acid], in the assay on multiple myeloma [1], the “CR (number of patients)” value was 5, the “MR (number of patients)” value came to 5, the “NC (number of patients)” value is listed as 19 and the “PD (number of patients)” value is given as 13. The “PR (number of patients)” value in the assay with multiple myeloma [1] stood at 25. Moreover, the “CR+PR rate” value in the assay on multiple myeloma [2] (53 of 193 patients) is reported as 27%. Further, the “overall response rate (CR+PR+MR)” value with multiple myeloma [2] (67 of 193 patients) is listed as 35%. Moreover, in assay [3], the survival is listed as 30 months and the One-year survival came to 80%. Moreover, in assay [3] (setting [5]), the “Complete Response” value was 20 (6) n (%), the “Minor Response” value is reported as 25 (8) n (%), the “Near CR: IF+” value was 21 (7) n (%) and the “Progressive Disease” value was 22 (7) n (%). Also, the “SWOG Remission” value in assay [3] (setting [5]) is listed as 46 (15) n (%). Besides, the “decrease in risk of death” value in assay [3] (bortezomib group versus dexamethasone, first year after enrollment) was 41%. Moreover, in assay [3] (setting [6]), the “Difference (95% CI), CR + PR + MR” value was 0.12 (0.04, 0.19); the “Difference (95% CI), Complete Response” value was 0.06 (0.03, 0.09); the “Difference (95% CI), Minor Response” value is given as −0.09 (−0.14, −0.04); the “Difference (95% CI), Near CR: IF+” value is 0.06 (0.03, 0.09). Further, in assay [3] (setting [6]), the “Difference (95% CI), No Change” value was −0.04 (−0.12, 0.04); the “Difference (95% CI), Overall Response Rate (CR + PR)” value is 0.20 (0.14, 0.27); the “Difference (95% CI), Partial Response” value is recorded as 0.15 (0.08, 0.21); the “Difference (95% CI), Progressive Disease” value is given as −0.06 (−0.11, −0.01). The “Difference (95% CI), SWOG Remission” value in assay [3] (setting [6]) is 0.09 (0.05, 0.14). For the same compound, the “CR+PR rate” value in assay [4] (bortezomib 1.0 mg/m^2) amounted to 30%. Further, in assay [4] (bortezomib 1.3 mg/m^2), the “CR+PR rate” value is listed as 38%.
On to `C[C@@H]1C[C@H]2[C@@H]3CCC4=CC(=O)C=C[C@]4(C)[C@@]3(F)[C@@H](O)C[C@]2(C)[C@@]1(O)C(=O)CO` [dexamethasone], for which, in the assay with multiple myeloma [1] (setting [7]), the “CR+PR rate” value stood at 22.2% and the overall response rate worked out at 39.7%. In the assay with multiple myeloma [1], the “CR (number of patients)” value is given as 1, the “MR (number of patients)” value came to 11, the “NC (number of patients)” value is listed as 16 and the “PD (number of patients)” value was determined as 22. Besides, the “PR (number of patients)” value in the assay on multiple myeloma [1] amounted to 13. Besides, in assay [3], the survival came out at 24 months and the One-year survival was 66%. Besides, in assay [3] (setting [5]), the “Complete Response” value was 2 (<1) n (%), the “Minor Response” value is reported as 52 (17) n (%), the “Near CR: IF+” value was 3 (<1) n (%) and the “Overall Response Rate (CR + PR)” value is reported as 56 (18) n (%). Further, in assay [3] (setting [5]), the “Partial Response” value was 54 (17) n (%), the “Progressive Disease” value is 41 (13) n (%) and the “SWOG Remission” value is 17 (5) n (%).
